Where a name gives a salt, the structure may show the parent alone.
How the values were obtained:
S1P1 [1] = molecular target: T1, S1P1 (Homo sapiens (Human), UniProt P21453); assay: Receptor binding assay, [33P]sphingosine 1-phosphate, membranes from CHO cells expressing S1P1; conditions: CHO cell membranes, 25 pM [33P]sphingosine 1-phosphate
Method: Receptor binding assay: Membranes were prepared from CHO cells expressing S1P1 or S1P3 for use in ligand and […] binding studies. Cells were suspended in 50 mM TRIS, pH 7.4, 2 mM EDTA, 250 mM Sucrose (buffer A) and 1× Complete protease inhibitor cocktail (Roche), and disrupted at 4° C. by N2 decompression using a cell disruption bomb (Parr Instrument). Following centrifugation at 1000 RPM for 10 min at 4° C., the supernatant was suspended in buffer A and centrifuged again at 19000 RPM for 60 min at 4° C. The pellet was then suspended in 10 mM HEPES, pH 7.4, 1 mM EDTA, 250 mM Sucrose (Buffer B), and 1× Complete EDTA-free protease inhibitor cocktail and homogenized using a potter. Membranes were flash frozen in liquid N2 and stored at −80° C. [33P]sphingosine 1-phosphate (3000 Ci/mmol; American Radiolabeled Chemicals, Inc.) was added to test compounds in DMSO. Membranes and WGA SPA beads (GE Healthcare) were added to give a final volume of 100 μl in 96-well plates with assay concentrations of 25 pM or 10 pM [33P]sphingosine 1-phosphate (respectively for S1P1 or S1P3), 50 mM HEPES, pH 7.5, 5 mM MgCl2, 100 mM NaCl, 0.4% fatty acid-free BSA, 1-5 μg/well of proteins and 100 μg/well of WGA SPA beads. Binding was performed for 60 min at RT on a shaker and bound radioactivity was measured on a PerkinElmer 1450 MicroBeta counter. Specific binding was calculated by subtracting remaining radioactivity in the presence of 1000-fold excess of unlabeled SIP. Binding data were analyzed using the GraphPad Prism program.

S1P1 [2] = molecular target: T1, S1P1; assay: 35S-GTPγS binding, membranes from CHO cells expressing S1P1; assay type: biochemical; conditions: CHO cell membranes

T1 sequence (P21453 whole entry, species assumed): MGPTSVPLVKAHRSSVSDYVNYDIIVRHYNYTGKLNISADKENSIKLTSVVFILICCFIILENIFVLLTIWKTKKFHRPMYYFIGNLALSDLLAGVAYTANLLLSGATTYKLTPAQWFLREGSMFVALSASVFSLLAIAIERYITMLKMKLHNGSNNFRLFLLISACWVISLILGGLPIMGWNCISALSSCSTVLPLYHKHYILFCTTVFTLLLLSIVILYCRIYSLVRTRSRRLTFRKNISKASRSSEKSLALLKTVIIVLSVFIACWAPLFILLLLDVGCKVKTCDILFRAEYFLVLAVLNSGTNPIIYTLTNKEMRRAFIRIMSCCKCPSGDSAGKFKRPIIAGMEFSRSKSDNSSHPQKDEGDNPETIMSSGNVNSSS

“4-[4-[3-(2,5-difluorophenyl)-1,2,4-oxadiazol-5-yl]-1-(2-fluorophenyl)-1H-pyrazol-5-yl]pyridine [Example 8]” showed a Ki (S1P1 [1]) of 0.003 µM and an EC50 (S1P1 [2]) of 0.003 µM.

Fc1ccc(F)c(-c2noc(-c3cnn(-c4ccccc4)c3-c3ccccc3)n2)c1 [Example 3, 3-(2,5-difluorophenyl)-5-(1,5-diphenyl-1H-pyrazol-4-yl)-1,2,4-oxadiazole] was tested, and the Ki (S1P1 [1]) was 0.008 µM and the EC50 (S1P1 [2]) was 0.077 µM.

For Cc1ccccc1-n1ncc(-c2nc(-c3cc(F)ccc3F)no2)c1-c1ccccc1 [Example 5, 3-(2,5-difluorophenyl)-5-(5-phenyl-1-o-tolyl-1H-pyrazol-4-yl)-1,2,4-oxadiazole], the Ki (S1P1 [1]) was 0.013 µM and the EC50 (S1P1 [2]) was 0.255 µM.

Work on Fc1ccc(-n2ncc(-c3nc(-c4cc(F)ccc4F)no3)c2-c2ccccc2)cc1 [Example 6, 3-(2,5-difluorophenyl)-5-(1-(4-fluorophenyl)-5-phenyl-1H-pyrazol-4-yl)-1,2,4-oxadiazole] yielded a Ki (S1P1 [1]) of 0.013 µM and an EC50 (S1P1 [2]) of 0.235 µM.

CC(C)Cn1ncc(-c2nc(-c3cc(F)ccc3F)no2)c1-c1ccccc1 [Example 12, 3-(2,5-difluorophenyl)-5-(1-isobutyl-5-phenyl-1H-pyrazol-4-yl)-1,2,4-oxadiazole] was tested, and the Ki (S1P1 [1]) was 0.007 µM and the EC50 (S1P1 [2]) was 0.036 µM.

For CCOC(=O)Cn1ncc(-c2nc(-c3cc(F)ccc3F)no2)c1-c1ccccc1 [Example 13, ethyl {4-[3-(2,5-difluorophenyl)-1,2,4-oxadiazol-5-yl]-5-phenyl-1H-pyrazol-1-yl}acetate], the Ki (S1P1 [1]) was 0.023 µM and the EC50 (S1P1 [2]) was 0.096 µM.

CC(C)Cn1ncc(-c2nc(-c3cc(F)ccc3F)no2)c1-c1ccncc1 [Example 19, 4-{4-[3-(2,5-difluorophenyl)-1,2,4-oxadiazol-5-yl]-1-isobutyl-1H-pyrazol-5-yl}pyridine] showed a Ki (S1P1 [1]) of 0.009 µM and an EC50 (S1P1 [2]) of 0.018 µM.

For Fc1ccc(F)c(-c2noc(-c3cnn(C4CCCCC4)c3-c3ccncc3)n2)c1 [Example 23, 5-(1-cyclohexyl-5-(pyridin-4-yl)-1H-pyrazol-4-yl)-3-(2,5-difluorophenyl)-1,2,4-oxadiazole], the Ki (S1P1 [1]) was 0.005 µM and the EC50 (S1P1 [2]) was 0.004 µM.

COCc1c(-c2nc(-c3ccc(/C=C/C(=O)O)cc3)no2)cnn1C1CCCCC1 [Example 98, (E)-3-(4-(5-(1-cyclohexyl-5-(methoxymethyl)-1H-pyrazol-4-yl)-1,2,4-oxadiazol-3-yl)phenyl)acrylic acid] was tested, and the Ki (S1P1 [1]) was 0.409 µM.

CC(C)(C)Cn1ncc(-c2nc(-c3ccc(CN4CC(C(=O)O)C4)cc3)no2)c1-c1ccncc1 [Example 105, 1-(4-(5-(1-neopentyl-5-(pyridin-4-yl)-1H-pyrazol-4-yl)-1,2,4-oxadiazol-3-yl)benzyl)azetidine-3-carboxylic acid] gave a Ki (S1P1 [1]) of 0.034 µM and an EC50 (S1P1 [2]) of 0.042 µM.

Molecule COCc1c(-c2nc(-c3ccc(O)cc3)no2)cnn1C1CCCCC1 [Example 123, 4-(5-(1-cyclohexyl-5-(methoxymethyl)-1H-pyrazol-4-yl)-1,2,4-oxadiazol-3-yl)phenol] has an EC50 (S1P1 [2]) of 0.082 µM.

In the case of COCc1c(-c2nc(-c3ccc(N)nc3)no2)cnn1C1CCCCC1 [Example 124, 5-(5-(1-cyclohexyl-5-(methoxymethyl)-1H-pyrazol-4-yl)-1,2,4-oxadiazol-3-yl)pyridin-2-amine], the EC50 (S1P1 [2]) is reported as 0.382 µM.

COCc1c(-c2nc(-c3cccc(O)c3)no2)cnn1C1CCCCC1 [Example 126, 3-(5-(1-cyclohexyl-5-(methoxymethyl)-1H-pyrazol-4-yl)-1,2,4-oxadiazol-3-yl)phenol] was tested, and the EC50 (S1P1 [2]) was 0.168 µM.

COCc1c(-c2nc(-c3ccc(CCN(C)C)cc3)no2)cnn1C1CCCCC1 [Example 127, 2-(4-(5-(1-cyclohexyl-5-(methoxymethyl)-1H-pyrazol-4-yl)-1,2,4-oxadiazol-3-yl)phenyl)-N,N-dimethylethanamine] showed an EC50 (S1P1 [2]) of 0.172 µM.

With COCc1c(-c2nc(-c3ccc(CCNC(C)C)cc3)no2)cnn1C1CCCCC1 [Example 128, N-(4-(5-(1-cyclohexyl-5-(methoxymethyl)-1H-pyrazol-4-yl)-1,2,4-oxadiazol-3-yl)phenethyl)propan-2-amine formate] the EC50 (S1P1 [2]) was 0.158 µM.

In the case of COCc1c(-c2nc(-c3ccc(CCN4CCC(C(=O)OC)CC4)cc3)no2)cnn1C1CCCCC1 [Example 129, Methyl 1-(4-(5-(1-cyclohexyl-5-(methoxymethyl)-1H-pyrazol-4-yl)-1,2,4-oxadiazol-3-yl)phenethyl)piperidine-4-carboxylate], the EC50 (S1P1 [2]) is reported as 0.438 µM.

Work on COCc1c(-c2nc(-c3ccc(CCN4CCC(C(=O)O)CC4)cc3)no2)cnn1C1CCCCC1 [Example 130, 1-(4-(5-(1-cyclohexyl-5-(methoxymethyl)-1H-pyrazol-4-yl)-1,2,4-oxadiazol-3-yl)phenethyl)piperidine-4-carboxylic acid] yielded an EC50 (S1P1 [2]) of 0.036 µM.

COCc1c(-c2nc(-c3ccc(OC4CCNC4)cc3)no2)cnn1C1CCCCC1 (stereo not drawn) [Example 131, 5-(1-cyclohexyl-5-(methoxymethyl)-1H-pyrazol-4-yl)-3-(4-(pyrrolidin-3-yloxy)phenyl)-1,2,4-oxadiazole] gave an EC50 (S1P1 [2]) of 0.181 µM.

O=C(O)C1CCN(Cc2ccc(-c3noc(-c4cnn(C5CCCCC5)c4C4CCOCC4)n3)cc2)CC1 [Example 132, 1-(4-(5-(1-cyclohexyl-5-(tetrahydro-2H-pyran-4-yl)-1H-pyrazol-4-yl)-1,2,4-oxadiazol-3-yl)benzyl)piperidine-4-carboxylic acid] gave an EC50 (S1P1 [2]) of 0.018 µM.

With COCc1c(-c2nc(-c3ccc(COCCCC(=O)O)cc3)no2)cnn1C1CCCCC1 [Example 133, 4-(4-(5-(1-cyclohexyl-5-(methoxymethyl)-1H-pyrazol-4-yl)-1,2,4-oxadiazol-3-yl)benzyloxy)butanoic acid] the Ki (S1P1 [1]) was 0.122 µM.

COCc1c(-c2nc(-c3ccc(OCCCC(=O)O)cc3)no2)cnn1C1CCCCC1 [Example 134, 4-(4-(5-(1-cyclohexyl-5-(methoxymethyl)-1H-pyrazol-4-yl)-1,2,4-oxadiazol-3-yl)Phenoxy)butanoic acid] gave a Ki (S1P1 [1]) of 0.128 µM.

Molecule COCc1c(-c2nc(-c3cccc(COCC(=O)O)c3)no2)cnn1C1CCCCC1 [Example 135, {3-[5-(1-Cyclohexyl-5-methoxymethyl-1H-pyrazol-4-yl)-[1,2,4]oxadiazol-3-yl]-benzyloxy}-acetic acid] has a Ki (S1P1 [1]) of 0.0415 µM.

Molecule c1cnn(Cc2ccc(-c3noc(-c4cnn(C5CCCCC5)c4-c4ccncc4)n3)cc2)c1 [Example 137, 4-{2-Cyclohexyl-4-[3-(4-pyrazol-1-ylmethyl-phenyl)-[1,2,4]oxadiazol-5-yl]-2H-pyrazol-3-yl}-pyridine] has a Ki (S1P1 [1]) of 0.00516 µM.

Molecule COCc1c(-c2nc(-c3cccc(CO)c3)no2)cnn1C1CCCCC1 [Example 138] has a Ki (S1P1 [1]) of 0.025 µM.

Molecule COCc1c(-c2nc(-c3ccc(CCC(=O)O)cc3)no2)cnn1C1CCCCC1 [Example 139] has a Ki (S1P1 [1]) of 0.393 µM.

For COCc1c(-c2nc(-c3cccc(COCCC(=O)O)c3)no2)cnn1C1CCCCC1 [Example 141], the Ki (S1P1 [1]) was 0.18 µM.

For COCc1c(-c2nc(-c3cccc(/C=C/C(=O)O)c3)no2)cnn1C1CCCCC1 [Example 142], the Ki (S1P1 [1]) was 0.191 µM.

For COCc1c(-c2nc(-c3cccc(COCC(=O)O)c3)no2)cnn1C1CCCCC1 [Example 143], the Ki (S1P1 [1]) was 0.0415 µM.

In the case of COCc1c(-c2nc(-c3cccc(OCCCC(=O)O)c3)no2)cnn1C1CCCCC1 [Example 144], the Ki (S1P1 [1]) is reported as 0.031 µM.

COCc1c(-c2nc(-c3cccc(CCC(=O)O)c3)no2)cnn1C1CCCCC1 [Example 145] was tested, and the Ki (S1P1 [1]) was 0.116 µM.

With COCc1c(-c2nc(-c3ccc(C(=O)NCCC(=O)O)cc3)no2)cnn1C1CCCCC1 [Example 146] the Ki (S1P1 [1]) was 0.0099 µM.

COCc1c(-c2nc(-c3cccc(C(=O)NCCC(=O)O)c3)no2)cnn1C1CCCCC1 [Example 147] gave a Ki (S1P1 [1]) of 0.257 µM.

In the case of c1cnn(Cc2ccc(-c3noc(-c4cnn(C5CCCCC5)c4-c4ccncc4)n3)cc2)c1 [Example 149], the Ki (S1P1 [1]) is reported as 0.0052 µM.

c1cc(-c2c(-c3nc(-c4ccc(Cn5ncnn5)cc4)no3)cnn2C2CCCCC2)ccn1 [Example 150] showed a Ki (S1P1 [1]) of 0.0034 µM.

In the case of c1cc(-c2c(-c3nc(-c4ccc(CCn5cncn5)cc4)no3)cnn2C2CCCCC2)ccn1 [Example 151], the Ki (S1P1 [1]) is reported as 0.0046 µM.

N#CCc1ccc(-c2noc(-c3cnn(C4CCCCC4)c3-c3ccncc3)n2)cc1 [Example 152] gave a Ki (S1P1 [1]) of 0.0033 µM.

O=C(O)c1cnn(Cc2ccc(-c3noc(-c4cnn(C5CCCCC5)c4-c4ccncc4)n3)cc2)c1 [Example 153] gave a Ki (S1P1 [1]) of 0.028 µM.

c1cc(-c2c(-c3nc(-c4ccc(Cc5nnn[nH]5)cc4)no3)cnn2C2CCCCC2)ccn1 [Example 154] showed a Ki (S1P1 [1]) of 0.076 µM.

Molecule c1cc(-c2c(-c3nc(-c4ccc(Cn5cnnn5)cc4)no3)cnn2C2CCCCC2)ccn1 [Example 155] has a Ki (S1P1 [1]) of 0.006 µM.

From patent publication US8802663B2, “Pyrazole oxadiazole derivatives as S1P1 agonists” (Merck Serono SA, priority 2009, dated 2014)
